Test results: paper PMC7054097, “Vanillin Production in Pseudomonas: Whole-Genome Sequencing of Pseudomonas sp. Strain 9.1 and Reannotation of Pseudomonas putida CalA as a Vanillin Reductase” (Applied and Environmental Microbiology, 2020)

Key:
[1] = target: T1, PP_3839 (adhP) gene product; calA-II (coniferyl alcohol dehydrogenase) (Pseudomonas putida, UniProt Q88G86); experiment: soluble cell extract, absorbance at […] nm; type: biochemical; conditions: 0.5 mM NAD+, 1 mM coniferyl alcohol, 33 mM sodium phosphate pH 7, 30 °C
T1 construct: whole cells or soluble extract

[2] = target: T1, PP_3839 (adhP) gene product; calA-II (coniferyl alcohol dehydrogenase); experiment: soluble cell extract, absorbance at […] nm; also whole-cell HPLC; type: biochemical; conditions: 1 mM substrate, 0.5 mM NAD+, 33 mM sodium phosphate pH 7, 30 °C

T1 sequence (Q88G86 1-336): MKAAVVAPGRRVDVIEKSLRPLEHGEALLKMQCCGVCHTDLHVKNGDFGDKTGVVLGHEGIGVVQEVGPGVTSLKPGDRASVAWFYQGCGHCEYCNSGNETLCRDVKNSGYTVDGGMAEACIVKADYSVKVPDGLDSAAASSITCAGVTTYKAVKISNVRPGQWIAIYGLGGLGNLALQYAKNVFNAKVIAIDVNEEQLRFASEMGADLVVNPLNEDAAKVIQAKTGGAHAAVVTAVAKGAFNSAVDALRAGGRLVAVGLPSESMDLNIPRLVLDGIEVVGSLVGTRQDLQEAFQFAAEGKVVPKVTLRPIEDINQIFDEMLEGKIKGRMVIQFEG

Compound	soluble cell extract, absorbance at 365 nm [1]	soluble cell extract, absorbance at 365 nm; also whole-cell HPLC [2]
NC(=O)c1ccc[n+]([C@@H]2O[C@H](COP(=O)(O)OP(=O)(O)OC[C@H]3O[C@@H](n4cnc5c(N)ncnc54)[C@H](O)[C@@H]3O)[C@@H](O)[C@H]2O)c1 [NAD^+]	coniferyl alcohol was rapidly oxidized in the presence of NAD^+	
COc1cc(/C=C/CO)ccc1O [coniferyl alcohol]		coniferyl alcohol was rapidly oxidized in the presence of NAD^+
